Test results taken from patent US20030114469A1, “Combinations” (priority 2001, published 2003).

Biological target: T1, human PDE5, partially purified from human platelets (Homo sapiens, UniProt O76074)
T1 construct: human PDE5, partially purified from human platelets; from tissue; host or cells: human platelets
Experiment: PDE5 Assay (SPA, 3H-cGMP)
Assay type: biochemical
Conditions: not given
Procedure: 10 μL of each of these solutions is transferred to a selected well of a 96-well Optiplate microtitre plate (e.g., Packard). To determine total binding, 10 μL of aqueous 20% v/v DMSO is added to other selected wells. To determine non-specific binding, a 10 mM solution of sildenafil in 100% DMSO is diluted 20-fold with aqueous 20% v/v DMSO and 10 μL of the resulting solution is added to further selected wells of the Optiplate plate. […] (The PDE Assay Buffer is prepared by dissolving Tris-base (7.56 g) in water (800 mL), adding 1 M aqueous MgCl2 (10.325 mL) and 0.5 M EDTA (4.25 mL), adjusting the pH to 7.5 with 1N hydrochloric acid and making up to 1 L with water). A solution of human PDE5, partially purified from human platelets (11 μL, containing 0.017 units of PDE5 per mL, where 1 unit hydrolyses 1.0 μmole of 3′,5′-cyclic GMP to 5′-GMP per minute at pH 7.5 at 37° C.), in 20 mM Hepes, pH 7.4, 100 mM sodium chloride, 10% v/v glycerol, 1 mM benzamidine and 2 mM dithiotherietol, is diluted 200-fold, with Enzyme Buffer prepared by adding 0.5 M EDTA (2 mL) to a solution of Tris-Base (1.21 g) in water (800 mL), adjusting the pH to 7.5 with 1N HCl and making up to 1 L with water. The diluted PDE5 solution (10 μL) is added to all wells containing test compound, aqueous DMSO or sildenafil solution. The plate is incubated at room temperature for 1 hour. Fifty (50) μL of a suspension of 500 mg PDE Yttrium silicate SPA beads (e.g., Amersham) in 28 mL water is added to each of the wells and the plate is incubated for a further 20 minutes and then sealed using Top Seal-S (e.g., Packard) according to the manufacturer's instructions. The resulting scintillations are counted using a Canberra Packard Top Count (1 minute per well), as a measure of the extent to which binding of PDE5 to the beads is inhibited.

In order of falling IC50:
1. COc1cc2cncc(Cc3nc4c([nH]3)c(=O)n(C)c(=O)n4CC(C)C)c2cc1OC [Example 10, 8-(6,7-dimethoxy-isoquinolin-4-ylmethyl)-3-isobutyl-1-methyl-3,7-dihydro-purine-2,6-dione]  10 nM
2. COc1cc2cncc(Cc3nc4c([nH]3)c(=O)n(C)c(=O)n4CC(C)CO)c2cc1OC (stereo not shown) [Example 68, 8-(6,7-dimethoxy-isoquinolin-4-ylmethyl)-3-(3-hydroxy-2-methyl-propyl)-1-methyl-3,7-dihydro-purine-2,6-dione]  7 nM
3. COc1cc2c(Cc3nc4c([nH]3)c(=O)n(C)c(=O)n4CC(C)C)cnc(C)c2cc1OC [Example 7, 8-(6,7-dimethoxy-1-methyl-isoquinolin-4-ylmethyl)-3-isobutyl-1-methyl-3,7-dihydro-purine-2,6-dione]  7 nM
4. COc1cc2cncc(Cc3nc4c([nH]3)c(=O)n(C)c(=O)n4CC(C)(C)C)c2cc1OC [Example 15]  6 nM
5. COc1ccc2cncc(Cc3nc4c([nH]3)c(=O)n(C)c(=O)n4CC(C)C)c2c1 [Example 45, 3-isobutyl-8-(6-methoxy-isoquinolin-4-ylmethyl)-1-methyl-3,7-dihydro-purine-2,6-dione]  2 nM

Same assay, conditions: human platelet PDE5, 3H-cGMP, room temperature 1 hour, yttrium silicate SPA beads; read-out: IC50 (concentration of test compound at which 50% inhibition of PDE5 binding to the beads occurs)

In order of rising IC50:
1. COc1cc2cncc(Cc3nc4c([nH]3)c(=O)n(C)c(=O)n4Cc3ccc(NS(=O)(=O)N(C)C)cc3)c2cc1OC [Example 60]  2.8 nM
2. COc1ccc2cncc(Cc3nc4c([nH]3)c(=O)n(C)c(=O)n4CC3CC3)c2c1 [Example 49]  3.7 nM
3. C#Cc1ccc2cncc(Cc3nc4c([nH]3)c(=O)n(C)c(=O)n4CC(C)C)c2c1 [Example 55, 8-(6-ethynyl-isoquinolin-4-ylmethyl)-3-isobutyl-1-methyl-3,7-dihydro-purine-2,6-dione]  5.5 nM
4. COc1cc2cncc(Cc3nc4c(=O)n(C)c(=O)n(CC5(C)CC5)c4[nH]3)c2cc1OC [Example 70, 8-(6,7-dimethoxy-isoquinolin-4-ylmethyl)-1-methyl-3-(1-methyl-cyclopropylmethyl)-3,9-dihydro-purine-2,6-dione]  9 nM
5. COc1cc2c(Cc3nc4c([nH]3)c(=O)n(C)c(=O)n4CC(C)C)cnc(Cl)c2cc1OC [Example 35, 8-(1-chloro-6,7-dimethoxy-isoquinolin-4-ylmethyl)-3-isobutyl-1-methyl-3,7-dihydro-purine-2,6-dione]  10 nM
